The source of these data is PubChem BioAssay (NCI).

Common to all, as to assay: NCI anticancer screen, dose series, 48 h
Experiment [1] relates to KM12 colon.
The test system of experiment [2] is TK-10 renal.
Experiment [3] relates to NCI-H226 lung.
Experiment [4] deals with OVCAR-8 ovarian.
Experiment [5] concerns A498 renal.
Experiment [6] concerns RPMI-8226 leukemia.
Experiment [7] relates to MDA-N.
For experiment [8], the system named is SK-MEL-2 melanoma.
In experiment [9] the test system is T-47D breast.
Experiment [10] concerns PC-3 prostate.
Experiment [11] concerns HOP-62 NSCLC.
In experiment [12] the test system is HCT-116 colon.
The subject of experiment [13] is OVCAR-3 ovarian.
Experiment [14] deals with NCI-H460 lung.
For experiment [15], the system named is MDA-MB-231 breast.

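Each compound was tested at five concentrations against cells in 96-well plates for 48 hours. At the TGI there is no net growth.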

For the compound `CC(=O)c1cc2c(s1)C(=O)c1ccsc1C2=O`, the TGI in experiment [1] turned out to be 3.11 µM; in experiment [2], 3.69 µM; in [3], 3.75 µM; in [4], 1.59 µM; in experiment [5], 12.6 µM; in experiment [6] it was 49.7 µM. Further, the TGI was found to be 0.197 µM in experiment [7]; 1.37 µM in experiment [8]; 6.82 µM in experiment [9]; 1.15 µM in [10]; 0.916 µM in experiment [11]; 1.59 µM in experiment [12]. The compound further showed a TGI in experiment [13] of 0.729 µM.

For the compound `O=c1oc2ccc3ccccc3c2cc1-c1nc(-c2ccc([N+](=O)[O-])cc2)n[nH]1`, the TGI in experiment [1] is above 100 µM; in [4] it was 94.6 µM; in experiment [5], above 100 µM; in experiment [6], above 100 µM; in experiment [7], above 100 µM; in experiment [8], above 100 µM. Also, the TGI in [14] was above 100 µM; in experiment [10], above 100 µM; in experiment [11], 42 µM; in [12], above 100 µM; in [13], above 100 µM.

Regarding `Cc1ccc(N=NN(C)C(C)C(O)Cc2ccccc2)cc1` (stereo unspecified), the TGI in experiment [15], in [1], in experiment [2], in experiment [3], in experiment [4] and in [6] was above 100 µM each time. In addition, the TGI in [7] is above 100 µM; in [8], above 100 µM; in experiment [14], above 100 µM; in [9], 88.5 µM; in experiment [10] it was above 100 µM; in experiment [11], above 100 µM. Besides, the TGI in experiment [12] and in experiment [13] was above 100 µM throughout.

On to `N#CC(NNC(=O)c1c(Cl)c(Cl)c(Cl)c(Cl)c1-c1nc2ccc(C(=O)c3ccccc3)cc2[nH]1)c1ccccc1` (stereo unspecified), for which the TGI is 36.4 µM in experiment [15]; above 100 µM in experiment [1]; 90.8 µM in [2]; 28.3 µM in [3]; above 100 µM in experiment [4]; 24.9 µM in experiment [6]. Also, the TGI in experiment [7] is 6.78 µM; in experiment [8], 58.1 µM; in experiment [9] it was 98.8 µM; in experiment [10], above 100 µM; in experiment [11], 63.7 µM; in experiment [12] it was above 100 µM. In [13], this compound returned a TGI of 57 µM.

In the case of `O=C(O)CCNc1ncc2c(n1)-c1ccccc1OC2`, the TGI in experiment [15], in experiment [1], in experiment [2], in experiment [3], in experiment [4] and in experiment [6] was above 100 µM throughout. In addition, the TGI in experiment [7], in experiment [8], in experiment [14], in experiment [10], in experiment [11] and in experiment [12] was above 100 µM throughout. Further, the TGI in experiment [13] is above 100 µM.

For the compound `O=C(NC1CCN(Cc2ccccc2)CC1)c1cccc(I)c1`, the TGI in experiment [15] is 32.1 µM; in [1], 33.6 µM; in experiment [2], 65.2 µM; in experiment [3] it was 78.1 µM; in experiment [4], above 100 µM; in experiment [5], above 100 µM. The TGI in experiment [6] was 69.2 µM; in experiment [8], 38.5 µM; in experiment [14], 63.7 µM; in experiment [9], 61 µM; in experiment [10], above 100 µM; in experiment [11], 30.6 µM. Also, the TGI in experiment [12] was 28.9 µM; in experiment [13], above 100 µM.

As to `O=C1NC(=S)N/C1=C\c1ccc(Cl)cc1`, the TGI in experiment [15], in [1], in experiment [2], in experiment [3], in experiment [4] and in experiment [6] was above 100 µM in each case. In addition, the TGI in experiment [7], in experiment [8], in [9], in experiment [10], in experiment [11] and in [12] was above 100 µM throughout. The TGI in experiment [13] was above 100 µM.

Take `O=C(NC(=O)c1ccccc1)OC(c1ccccc1)C1CO1` (stereo unspecified): the TGI in experiment [15], in experiment [1], in experiment [2], in experiment [3], in experiment [4] and in experiment [6] was above 100 µM in each case. The TGI in experiment [7], in [8], in experiment [14], in experiment [9], in experiment [10] and in experiment [11] was above 100 µM each time. The TGI in experiment [12] and in experiment [13] was above 100 µM throughout.

Regarding `N#CC(c1ccccc1)N(CCc1ccccc1)C(=O)c1ccc(C(=O)N(CCc2ccccc2)C(C#N)c2ccccc2)cc1` (stereo unspecified), the TGI in [15] is 76.1 µM; in experiment [1], above 100 µM; in experiment [2], 29.8 µM; in experiment [3], 33.8 µM; in [4], 34.6 µM; in experiment [5] it was 75.3 µM. Further, the TGI in experiment [7] was 65.1 µM; in experiment [8], 48.1 µM; in experiment [14], 37 µM; in experiment [9], 61.3 µM; in [10], above 100 µM; in [12] it was 28.4 µM. In experiment [13], this compound displayed a TGI of 47 µM.

Take `CC(C)(C)CNCCCNc1ccc(Cl)cc1`: the TGI in experiment [15] is 82.3 µM; in experiment [1], above 100 µM; in experiment [2], 73.9 µM; in experiment [3], 78.7 µM; in experiment [4] it was above 100 µM; in [5] it was 51.5 µM. The TGI is 55.4 µM in experiment [6]; above 100 µM in experiment [7]; above 100 µM in [8]; above 100 µM in experiment [14]; above 100 µM in experiment [10]; above 100 µM in experiment [11]. The same compound displayed a TGI in experiment [12] above 100 µM.
